Test results as given in PubChem BioAssay (NCI).
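In this assay, cells in 96-well plates receive the compound at five concentrations for 48 hours. Endpoints are linearly interpolated between the surrounding concentrations. The concentration for full growth arrest is given as TGI.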

Columns and labels:
Assay in all cases: NCI tumour cell line growth inhibition, 48 h
HL-60(TB) leukemia = tested on: HL-60(TB) leukemia
MDA-MB-231 breast = tested on: MDA-MB-231 breast
K-562 leukemia = tested on: K-562 leukemia
TK-10 renal = tested on: TK-10 renal
HOP-92 NSCLC = tested on: HOP-92 NSCLC
KM12 colon = tested on: KM12 colon
MOLT-4 leukemia = tested on: MOLT-4 leukemia
OVCAR-5 ovarian = tested on: OVCAR-5 ovarian
COLO 205 colon = tested on: COLO 205 colon
SN12C renal = tested on: SN12C renal

O=C(Nc1nn[nH]n1)c1nc(-c2ccccc2)cc(=O)[nH]1
TGI (HL-60(TB) leukemia): > 100 µM | TGI (MDA-MB-231 breast): > 100 µM | TGI (K-562 leukemia): > 100 µM | TGI (TK-10 renal): > 100 µM | TGI (HOP-92 NSCLC): > 100 µM | TGI (KM12 colon): > 100 µM | TGI (MOLT-4 leukemia): > 100 µM | TGI (OVCAR-5 ovarian): > 100 µM | TGI (COLO 205 colon): > 100 µM | TGI (SN12C renal): > 100 µM

CC1CCC2(OC1)OC1C(O)C3C4CCC5CC(OC6OC(CO)C(OC7OC(CO)C(O)C(OC8OCC(O)C(O)C8O)C7OC7OC(CO)C(O)C(OC8OC(CO)C(O)C(O)C8O)C7O)C(O)C6O)C(O)CC5(C)C4CCC3(C)C1C2C (stereo not given)
TGI (HL-60(TB) leukemia): 7.21 µM | TGI (MDA-MB-231 breast): 4.3 µM | TGI (K-562 leukemia): > 100 µM | TGI (TK-10 renal): 6.1 µM | TGI (HOP-92 NSCLC): 26.5 µM | TGI (KM12 colon): 4.77 µM | TGI (MOLT-4 leukemia): 15.1 µM | TGI (OVCAR-5 ovarian): 4.12 µM | TGI (COLO 205 colon): 3.6 µM | TGI (SN12C renal): 9.88 µM

O=C1NC(Cc2ccc(O)cc2)C(=O)NC1Cc1ccc(O)cc1 (stereo not given)
TGI (HL-60(TB) leukemia): > 100 µM | TGI (MDA-MB-231 breast): > 100 µM | TGI (K-562 leukemia): > 100 µM | TGI (TK-10 renal): > 100 µM | TGI (HOP-92 NSCLC): > 100 µM | TGI (KM12 colon): > 100 µM | TGI (MOLT-4 leukemia): > 100 µM | TGI (OVCAR-5 ovarian): > 100 µM | TGI (COLO 205 colon): > 100 µM | TGI (SN12C renal): > 100 µM

OC(NN=C1CCCC1)(C(F)(F)Cl)C(F)(F)Cl
TGI (HL-60(TB) leukemia): > 10 µM | TGI (MDA-MB-231 breast): > 10 µM | TGI (K-562 leukemia): > 10 µM | TGI (TK-10 renal): > 10 µM | TGI (HOP-92 NSCLC): > 10 µM | TGI (KM12 colon): > 10 µM | TGI (MOLT-4 leukemia): > 10 µM | TGI (OVCAR-5 ovarian): > 10 µM | TGI (COLO 205 colon): > 10 µM | TGI (SN12C renal): > 10 µM

Cc1ccc(S(=O)(=O)NC(=O)C2=C3SCCN3C(=O)N(S(=O)(=O)c3ccc(C)cc3)C2c2ccccc2)cc1 (stereo not given)
TGI (HL-60(TB) leukemia): > 100 µM | TGI (MDA-MB-231 breast): > 100 µM | TGI (K-562 leukemia): > 100 µM | TGI (TK-10 renal): > 100 µM | TGI (HOP-92 NSCLC): > 100 µM | TGI (KM12 colon): 71.6 µM | TGI (MOLT-4 leukemia): > 100 µM | TGI (OVCAR-5 ovarian): > 100 µM | TGI (COLO 205 colon): 43.6 µM | TGI (SN12C renal): > 100 µM

CC(C)=CCC[C@@H](C)C1=C(O)C(Nc2ccccc2I)=C(C)C(=O)C1=O
TGI (HL-60(TB) leukemia): 4.39 µM | TGI (MDA-MB-231 breast): > 75 µM | TGI (K-562 leukemia): > 66.8 µM | TGI (TK-10 renal): > 75 µM | TGI (HOP-92 NSCLC): 50.2 µM | TGI (KM12 colon): 19.7 µM | TGI (MOLT-4 leukemia): > 19.5 µM | TGI (OVCAR-5 ovarian): > 75 µM | TGI (COLO 205 colon): 33.1 µM | TGI (SN12C renal): > 75 µM

N#Cc1c(N)nc2c3c1NC(=O)C(C(N)=O)C3c1ccccc1O2 (stereo not given)
TGI (HL-60(TB) leukemia): > 100 µM | TGI (MDA-MB-231 breast): > 100 µM | TGI (K-562 leukemia): > 100 µM | TGI (TK-10 renal): > 100 µM | TGI (HOP-92 NSCLC): 71.9 µM | TGI (KM12 colon): > 100 µM | TGI (MOLT-4 leukemia): > 100 µM | TGI (OVCAR-5 ovarian): > 100 µM | TGI (COLO 205 colon): > 100 µM | TGI (SN12C renal): > 100 µM

CC(=O)OC[C@H]1On2nnnc2[C@H](OC(C)=O)[C@@H](OC(C)=O)[C@@H]1OC(C)=O
TGI (HL-60(TB) leukemia): > 100 µM | TGI (MDA-MB-231 breast): > 100 µM | TGI (K-562 leukemia): > 100 µM | TGI (TK-10 renal): > 100 µM | TGI (HOP-92 NSCLC): > 100 µM | TGI (KM12 colon): > 100 µM | TGI (MOLT-4 leukemia): > 100 µM | TGI (OVCAR-5 ovarian): > 100 µM | TGI (COLO 205 colon): > 100 µM | TGI (SN12C renal): > 100 µM

CC(=O)OCC1OC(n2c(C)c(C)c(C)c(C#N)c2=S)C(OC(C)=O)C(OC(C)=O)C1OC(C)=O (stereo not given)
TGI (HL-60(TB) leukemia): > 100 µM | TGI (MDA-MB-231 breast): > 100 µM | TGI (K-562 leukemia): > 100 µM | TGI (TK-10 renal): > 100 µM | TGI (HOP-92 NSCLC): > 100 µM | TGI (KM12 colon): > 100 µM | TGI (MOLT-4 leukemia): > 100 µM | TGI (OVCAR-5 ovarian): > 100 µM | TGI (COLO 205 colon): > 100 µM | TGI (SN12C renal): > 100 µM

COC1=CC(=O)N(C)C(O)C1(C#N)OC1OC(CO)C(O)C(O)C1O (stereo not given)
TGI (HL-60(TB) leukemia): > 100 µM | TGI (MDA-MB-231 breast): > 100 µM | TGI (K-562 leukemia): > 10 µM | TGI (TK-10 renal): > 100 µM | TGI (HOP-92 NSCLC): > 100 µM | TGI (KM12 colon): > 100 µM | TGI (MOLT-4 leukemia): > 100 µM | TGI (OVCAR-5 ovarian): > 100 µM | TGI (COLO 205 colon): > 100 µM | TGI (SN12C renal): > 100 µM

CCCCCCCCOc1ccc(/C=C/C2=[N+](CCO)CCO2)cc1
TGI (HL-60(TB) leukemia): 4.74 µM | TGI (MDA-MB-231 breast): 11.4 µM | TGI (K-562 leukemia): 4.87 µM | TGI (TK-10 renal): 17.3 µM | TGI (HOP-92 NSCLC): 6.51 µM | TGI (KM12 colon): 11 µM | TGI (MOLT-4 leukemia): 9.27 µM | TGI (OVCAR-5 ovarian): 26.4 µM | TGI (COLO 205 colon): 5.69 µM | TGI (SN12C renal): 11.9 µM
